The results in this text go back to US11111251B2, “Positive allosteric modulators of the muscarinic acetylcholine receptor M1” (Vanderbilt University, priority 2016, dated 2021).

Like-named read-outs stand apart in the source and are kept apart here.

This assay addresses T1, human mAChR M1 (Homo sapiens, UniProt P11229).
T1 sequence (P11229 1-460): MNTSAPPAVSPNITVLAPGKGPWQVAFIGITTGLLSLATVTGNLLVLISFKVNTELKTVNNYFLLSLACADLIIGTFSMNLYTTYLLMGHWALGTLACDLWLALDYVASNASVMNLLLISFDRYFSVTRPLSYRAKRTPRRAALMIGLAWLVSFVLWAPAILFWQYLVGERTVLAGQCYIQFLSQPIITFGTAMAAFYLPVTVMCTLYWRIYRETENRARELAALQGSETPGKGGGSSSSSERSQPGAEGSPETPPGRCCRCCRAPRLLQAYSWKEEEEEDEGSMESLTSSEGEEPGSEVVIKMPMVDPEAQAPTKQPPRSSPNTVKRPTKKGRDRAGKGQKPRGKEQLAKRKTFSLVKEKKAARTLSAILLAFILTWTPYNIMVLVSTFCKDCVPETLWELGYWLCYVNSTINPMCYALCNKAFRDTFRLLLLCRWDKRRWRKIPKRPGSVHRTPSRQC
Briefly: mAChR M1 cell-based functional assay: calcium mobilization, positive allosteric modulator mode (increase in EC20 acetylcholine response). To be noted: for Emax: read-out: Human M1 Emax (%). In short, it runs like this: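 Calcium-flux assay in CHO-K1 cells stably expressing human M1, loaded with Fluo-4 AM (50 min, 37 °C) and read at 1 Hz. Compound (11-point, 1:3 series) was added at 4 s, EC20 acetylcholine at 144 s and EC80 at 230 s. PAM activity is the concentration-dependent rise in the EC20 response, fitted with a four-parameter logistic.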

Setting [1] is: Table 2, human M1, read-out: Human M1 EC50.
Setting [2] is: Table 1, mAChR M1 cell-based functional assay, PAM mode, species not given, read-out: EC50.

As for `CC1CC(NC(=O)c2cc(Cc3ccc(-c4cncs4)cc3)c3sccc3n2)CC(C)O1` (stereo not shown) [Compound 391, N-(2,6-dimethyltetrahydropyran-4-yl)-7-[(4-thiazol-5-ylphenyl)methyl]thieno[3,2-b]pyridine-5-carboxamide], the EC50 under setting [1] was determined as 1.8 µM. Besides, for the setting “Table 2, human M1”, the maximal response (Emax) is 73.4%.

With `Cc1cc2nc(C(=O)N[C@H]3CCC[C@@H]3O)cc(Cc3ccc(-n4cccn4)cc3)c2s1` [Compound 236, N-[(1S,2S)-2-hydroxycyclopentyl]-2-methyl-7-[(4-pyrazol-1-ylphenyl)methyl]thieno[3,2-b]pyridine-5-carboxamide], the EC50 under setting [1] was found to be 2.68 µM. Moreover, the maximum response (Emax) (Table 2, human M1) stood at 78.2%.

On to `Cc1nc(-c2ccc(Cc3cc(C(=O)N[C@H]4CC[C@@H]4O)nc4ccsc34)cc2)co1` [Compound 146, N-[(1S,2S)-2-hydroxycyclobutyl]-7-[[4-(2-methyloxazol-4-yl)phenyl]methyl]thieno[3,2-b]pyridine-5-carboxamide], for which, under setting [1], the EC50 turned out to be 0.336 µM. Also, the Emax (Table 2, human M1) came out at 90.7%.

As to `O=C(N[C@@H]1CCOC1)c1cc(Cc2ccc(-n3cccn3)cc2)c2sccc2n1` [Compound 277, 7-[(4-pyrazol-1-ylphenyl)methyl]-N-[(3R)-tetrahydrofuran-3-yl]thieno[3,2-b]pyridine-5-carboxamide], under setting [1], the EC50 was 0.627 µM. The maximal effect (Emax) (Table 2, human M1) amounted to 67.9%.

Take `O=C(N[C@@H]1CCOC[C@H]1O)c1cc(Cc2ccc(-n3cccn3)cc2)c2sccc2n1` [Compound 74, N-[(3S,4R)-3-hydroxytetrahydropyran-4-yl]-7-[(4-pyrazol-1-ylphenyl)methyl]thieno[3,2-b]pyridine-5-carboxamide]: the half-maximal effective concentration (EC50) under setting [1] worked out at 0.0122 µM. In addition, the maximum response (Emax) (Table 2, human M1) turned out to be 84.9%.

On to `Cn1cc(-c2ccc(Cc3cc(C(=O)NC4CC5(COC5)C4)nc4ccn(C)c34)cn2)cn1` [Compound 471, 1-methyl-7-[[6-(1-methylpyrazol-4-yl)-3-pyridyl]methyl]-N-(2-oxaspiro[3.3]heptan-6-yl)pyrrolo[3,2-b]pyridine-5-carboxamide], for which the 50% effective concentration (EC50) under setting [1] amounted to 0.39 µM. For the same molecule, the Emax (Table 2, human M1) is 85.4%.

As to `O=C(NCC1CCOCC1)c1cc(Cc2ccc(-c3nccs3)cc2)c2sccc2n1` [Compound 298, N-(tetrahydropyran-4-ylmethyl)-7-[(4-thiazol-2-ylphenyl)methyl]thieno[3,2-b]pyridine-5-carboxamide], the EC50 under setting [1] is 0.368 µM. The Emax (Table 2, human M1) came out at 45.5%.

Consider `CO[C@H]1CCCC[C@@H]1NC(=O)c1cc(Cc2ccc(-c3csc(C)n3)cc2)c2sccc2n1` [Compound 195, N-[(1S,2S)-2-methoxycyclohexyl]-7-[[4-(2-methylthiazol-4-yl)phenyl]methyl]thieno[3,2-b]pyridine-5-carboxamide], for which the EC50 under setting [1] worked out at 2.39 µM. Also, the Emax (Table 2, human M1) stood at 81.8%.

For the molecule `Cc1csc2c(Cc3ccc(-n4cccn4)cc3)cc(C(=O)N[C@@H]3CCCCC[C@H]3O)nc12` [Compound 120, N-[(1R,2R)-2-hydroxycycloheptyl]-3-methyl-7-[(4-pyrazol-1-ylphenyl)methyl]thieno[3,2-b]pyridine-5-carboxamide], under setting [1], the EC50 came out at 1.32 µM. The Emax (Table 2, human M1) turned out to be 75.3%.

In the case of `Cn1cc(-c2ccc(Oc3cc(C(=O)N[C@H]4CCC[C@@H]4O)nc4ccsc34)c(F)c2)cn1` [Compound 6], the concentration for a half-maximal effect (EC50) under setting [2] is above 10 µM.

For the molecule `Cn1cc(-c2ccc(Cc3cc(C(=O)N[C@@H]4CCOC[C@H]4O)nc4ccsc34)cc2)nn1` [Compound 153, N-[(3S,4R)-3-hydroxytetrahydropyran-4-yl]-7-[[4-(1-methyltriazol-4-yl)phenyl]methyl]thieno[3,2-b]pyridine-5-carboxamide], the 50% effective concentration (EC50) under setting [1] was determined as 0.00474 µM. Besides, the maximal response (Emax) (Table 2, human M1) was found to be 59.8%.

On to `Cn1cc(-c2ccc(Oc3cc(C(=O)NC4CCOCC4)nc4ccsc34)c(F)c2)cn1` [Compound 4, 7-[2-fluoro-4-(1-methylpyrazol-4-yl)phenoxy]-N-tetrahydropyran-4-yl-thieno[3,2-b]pyridine-5-carboxamide], for which the EC50 under setting [2] was found to be 4.99 µM.

Consider `Cn1ccc(-c2ccc(Cc3cc(C(=O)NCC4CCOCC4)nc4ccn(C)c34)cn2)n1` [Compound 508, 1-methyl-7-[[6-(1-methylpyrazol-3-yl)-3-pyridyl]methyl]-N-(tetrahydropyran-4-ylmethyl)pyrrolo[3,2-b]pyridine-5-carboxamide;], for which the concentration giving a half-maximal response (EC50) under setting [1] was found to be 2.31 µM. For the setting “Table 2, human M1”, the Emax was 79.9%.

In the case of `Cc1csc2c(Cc3ccc(-n4cccn4)cc3)cc(C(=O)NC3CCCNC3=O)nc12` (stereo not shown) [Compound 122, 3-methyl-N-(2-oxo-3-piperidyl)-7-[(4-pyrazol-1-ylphenyl)methyl]thieno[3,2-b]pyridine-5-carboxamide], the EC50 under setting [1] was determined as 0.869 µM. For the same molecule, the maximum response (Emax) (Table 2, human M1) stood at 80.4%.

Turning to `Cc1nc(-c2ccc(Cc3cc(C(=O)N[C@H]4CCOC4)nc4ccsc34)cc2)co1` [Compound 161, 7-[[4-(2-methyloxazol-4-yl)phenyl]methyl]-N-[(3S)-tetrahydrofuran-3-yl]thieno[3,2-b]pyridine-5-carboxamide], the concentration for a half-maximal effect (EC50) under setting [1] is 3.51 µM. Also, the maximal effect (Emax) (Table 2, human M1) amounted to 78.8%.

Turning to `Cc1nc(-c2ccc(Cc3cc(C(=O)N[C@H]4CCCOC4)nc4ccsc34)cc2)cs1` [Compound 189, 7-[[4-(2-methylthiazol-4-yl)phenyl]methyl]-N-[(3S)-tetrahydropyran-3-yl]thieno[3,2-b]pyridine-5-carboxamide], under setting [1], the EC50 was 6.27 µM. Besides, where the note is “Table 2, human M1”, the Emax is 72%.

Consider `CC1CC(NC(=O)c2cc(Cc3ccc(-c4ccn(C)n4)nc3)c3sccc3n2)CC(C)O1` (stereo not shown) [Compound 377, N-(2,6-dimethyltetrahydropyran-4-yl)-7-[[6-(1-methylpyrazol-3-yl)-3-pyridyl]methyl]thieno[3,2-b]pyridine-5-carboxamide], for which the 50% effective concentration (EC50) under setting [1] amounted to 0.412 µM. Also, the maximum response (Emax) (Table 2, human M1) is 58.7%.

Turning to `O=C(N[C@H]1CCC[C@@H]1O)c1cc(Cc2ccc(-c3nccs3)cc2)c2sccc2n1` [Compound 314], the EC50 under setting [1] stood at 0.203 µM. Besides, the Emax (Table 2, human M1) worked out at 84.1%.

For `Cc1cc2nc(C(=O)N[C@H]3CCOC[C@@H]3O)cc(Cc3ccc(-n4cccn4)cc3)c2s1` [Compound 238, N-[(3R,4S)-3-hydroxytetrahydropyran-4-yl]-2-methyl-7-[(4-pyrazol-1-ylphenyl)methyl]thieno[3,2-b]pyridine-5-carboxamide], the EC50 under setting [1] is 0.108 µM. Also, where the note is “Table 2, human M1”, the maximal response (Emax) amounted to 84.7%.

Turning to `Cn1cc(-c2cc(F)c(Cc3cc(C(=O)N[C@H]4CCCCC[C@@H]4O)nc4ccsc34)c(F)c2)cn1` [Compound 61, 7-[[2,6-difluoro-4-(1-methylpyrazol-4-yl)phenyl]methyl]-N-[(1S,2S)-2-hydroxycycloheptyl]thieno[3,2-b]pyridine-5-carboxamide], the EC50 under setting [1] was above 10 µM. Further, the maximal effect (Emax) (Table 2, human M1) amounted to 64.8%.

As for `CN1CC(NC(=O)c2cc(Cc3ccc(-n4cccn4)cc3)c3sccc3n2)CC1=O` (stereo not shown) [Compound 438, N-(1-methyl-5-oxo-pyrrolidin-3-yl)-7-[(4-pyrazol-1-ylphenyl)methyl]thieno[3,2-b]pyridine-5-carboxamide], the 50% effective concentration (EC50) under setting [1] was 2.21 µM. For the same molecule, under “Table 2, human M1”, the Emax came to 63.1%.

As for `Cn1ccc2nc(C(=O)N[C@H]3CCC[C@@H]3O)cc(Cc3ccc(-c4nccs4)cc3)c21` [Compound 483, N-[(1S,2S)-2-hydroxycyclopentyl]-1-methyl-7-[(4-thiazol-2-ylphenyl)methyl]pyrrolo[3,2-b]pyridine-5-carboxamide], the EC50 under setting [1] stood at 0.065 µM. Also, the Emax (Table 2, human M1) came to 58.6%.

`O=C(N[C@H]1CCCOC1)c1cc(Cc2ccc(-c3cscn3)cc2)c2sccc2n1` [Compound 213, N-([3S)-tetrahydropyran-3-yl]-7-[(4-thiazol-4-ylphenyl)methyl]thieno[3.2-b]pyridine-5-carboxamide]: the EC50 under setting [1] came to 1.12 µM. Also, where the note is “Table 2, human M1”, the Emax stood at 61.2%.

As for `Cc1ccc(Cc2cc(C(=O)Nc3cc(C)n[nH]3)nc3ccsc23)cn1` [Compound 69, N-(3-methyl-1H-pyrazol-5-yl)-7-[(6-methyl-3-pyridyl)methyl]thieno[3,2-b]pyridine-5-carboxamide], the 50% effective concentration (EC50) under setting [1] is 6.82 µM. Also, for the setting “Table 2, human M1”, the Emax was 80.3%.

Take `O=C(NC1CCCCNC1=O)c1cc(Cc2ccc(C(F)(F)F)nc2)c2sccc2n1` (stereo not shown) [Compound 98, N-(2-oxoazepan-3-yl)-7-[[6-(trifluoromethyl)-3-pyridyl]methyl]thieno[3,2-b]pyridine-5-carboxamide]: under setting [1], the half-maximal effective concentration (EC50) was 6 µM. The Emax (Table 2, human M1) amounted to 66.6%.

On to `O=C(NC1CC(F)C1)c1cc(Cc2ccc(-c3nccs3)cc2)c2sccc2n1` (stereo not shown) [Compound 367, N-(3-fluorocyclobutyl)-7-[(4-thiazol-2-ylphenyl)methyl]thieno[3,2-b]pyridine-5-carboxamide], for which the concentration giving a half-maximal response (EC50) under setting [1] was above 10 µM. Moreover, the maximal effect (Emax) (Table 2, human M1) amounted to 71.9%.

On to `O=C(N[C@@H]1CCC[C@H]1O)c1cc(Cc2ccc(C(F)(F)F)nc2)c2sccc2n1` [Compound 88, N-[(1R,2R)-2-hydroxycyclopentyl]-7-[[6-(trifluoromethyl)-3-pyridyl]methyl]thieno[3,2-b]pyridine-5-carboxamide], for which the concentration giving a half-maximal response (EC50) under setting [1] worked out at 0.503 µM. The maximum response (Emax) (Table 2, human M1) came out at 90.5%.

As a reminder, the EC50 is the concentration giving half of the maximal effect. A word on the Emax: it is the maximal effect, on the per cent scale that the assay sets.
